Source: US6777402B2, “Water-soluble porphyrin derivatives for photodynamic therapy, their use and manufacture” (CeramOptec Industries, Inc., priority 2001, dated 2004)
≈ marks a conversion by molar mass, not a printed value.

How the values were obtained:
[1] = physchem; settings: water
[2] = Water solubility of salts with hydrophilic amines; settings: as salts with hydrophilic amines

Compound	solubility [1]	water solubility compared with the respective chlorin e6 salts [2]
C=Cc1c(C)c2cc3nc(c(CC(=O)O)c4[nH]c(cc5nc(cc1[nH]2)C(C)=C5CC)c(C)c4C(=O)O)[C@@H](CCC(=O)O)[C@@H]3C [(7), chlorin e6]	> 5000 µg/mL	–
C=Cc1c(C)c2cc3nc(c4c5[nH]c(cc6nc(cc1[nH]2)C(C)=C6CC)c(C)c5C(=O)OC4=O)[C@@H](CCC(=O)O)[C@@H]3C [(8), purpurin 18]	–	remarkably lower water solubility
C=Cc1c(C)c2cc3nc(c(C(=O)O)c4[nH]c(cc5nc(cc1[nH]2)C(C)=C5CC)c(C)c4C(=O)O)[C@@H](CCC(=O)O)[C@@H]3C [(9), chlorin p6]	–	remarkably lower water solubility
CCC1=C(C)c2cc3[nH]c(cc4nc(c5c6[nH]c(cc1n2)c(C)c6C(=O)C5)[C@@H](CCC(=O)O)[C@@H]4C)c(C)c3CC [(36), mesopyropheophorbide a]	40 µg/mL (≈ 74.5 µM)	–
pheophorbide a [(4)]	–	remarkably lower water solubility
